Source: ChEMBL document CHEMBL4680293, “Tubulin inhibitory activity of a novel colchicine-binding compounds based on a dinaphthospiropyranran scaffold” (Bioorg Med Chem, 2021)
Active and inactive are the calls of the source. The rule behind the calls is not given here.

Columns and labels:
[1] = tested on: COLO 205; experiment: Anti-cancer activity against human COLO205 cells assessed as cell growth inhibition measured after 48 hrs by SRB method; assay type: functional, cell-based
[2] = Anti-cancer activity against human breast cancer cells assessed as cell growth inhibition measured after 48 hrs by SRB method; assay type: functional; details: Breast cancer cell line
[3] = tested on: MDA-MB-231; experiment: Anti-cancer activity against human MDA-MB-231 cells assessed as cell growth inhibition measured after 48 hrs by SRB method; assay type: functional, cell-based
[4] = tested on: TK-10; experiment: Anti-cancer activity against human TK-10 cells assessed as cell growth inhibition measured after 48 hrs by SRB method; assay type: functional, cell-based
[5] = tested on: HCC 2998; experiment: Anti-cancer activity against human HCC2998 cells assessed as cell growth inhibition measured after 48 hrs by SRB method; assay type: functional, cell-based
[6] = tested on: A549; experiment: Anti-cancer activity against human A549/ATCC cells assessed as cell growth inhibition measured after 48 hrs by SRB method; assay type: functional, cell-based
[7] = tested on: MDA-MB-435; experiment: Anti-cancer activity against human MDA-MB-435 cells assessed as cell growth inhibition measured after 48 hrs by SRB method; assay type: functional, cell-based
[8] = biological target: Tubulin (Homo sapiens) (UniProt P68371+Q9H4B7+P0DPH7+P68366+Q13509+Q71U36+P04350+Q3ZCM7+P07437+P68363+Q9BQE3+Q6PEY2+Q13885+Q9BVA1+Q9BUF5); experiment: Disruption of tubulin in human HCT-116 cells assessed as induction of tubulin reorganization at 20 uM after 48 hrs by DAPI staining based immunofluorescence method; assay type: cell-based
[9] = tested on: Malme-3M; experiment: Anti-cancer activity against human Malme-3M cells assessed as cell growth inhibition measured after 48 hrs by SRB method; assay type: functional, cell-based
[10] = tested on: CAKI-1; experiment: Anti-cancer activity against human CAKI-1 cells assessed as cell growth inhibition measured after 48 hrs by SRB method; assay type: functional, cell-based
[11] = Anti-cancer activity against human colon cancer cells assessed as cell growth inhibition measured after 48 hrs by SRB method; assay type: functional; details: Colon cancer cell line
[12] = tested on: Hs-578T; experiment: Anti-cancer activity against human HS-578T cells assessed as cell growth inhibition measured after 48 hrs by SRB method; assay type: functional, cell-based
[13] = tested on: IGROV-1; experiment: Anti-cancer activity against human IGROV1 cells assessed as cell growth inhibition measured after 48 hrs by SRB method; assay type: functional, cell-based
[14] = tested on: EKVX; experiment: Anti-cancer activity against human EKVX cells assessed as cell growth inhibition measured after 48 hrs by SRB method; assay type: functional, cell-based

## C1=C2CNCC3=Cc4c(ccc5ccccc45)OC23Oc2ccc3ccccc3c21
[1]; COLO 205, 48 h
  IC50: 3.72 µM
[1]; COLO 205, time 48 hrs
  GI50: 2.09 µM
  TGI: 4.27 µM
[1]; COLO 205, time 48 hrs, read-out: LC50 (the source's name)
  CC50: 5.07 µM
[2]
  GI50: 4.68 µM
[3]; MDA-MB-231, 48 h
  IC50: 22.9 µM
[3]; MDA-MB-231, time 48 hrs
  GI50: 9.33 µM
  TGI: 26.9 µM
[3]; MDA-MB-231, time 48 hrs, read-out: LC50 (the source's name)
  CC50: 4.12 µM
[4]; TK-10, 48 h
  IC50: 26.9 µM
[4]; TK-10, time 48 hrs
  GI50: 9.12 µM
  TGI: 27.5 µM
[5]; HCC 2998, 48 h
  IC50: 8.51 µM
[5]; HCC 2998, time 48 hrs
  GI50: 3.98 µM
  LC50 (lethal concentration, 50% cell kill): 4.11 µM
  TGI: 19.5 µM
[6]; A549, 48 h
  IC50: 6.92 µM
[6]; A549, time 48 hrs
  GI50: 4.47 µM
  TGI: 20.4 µM
[6]; A549, time 48 hrs, read-out: LC50 (the source's name)
  CC50: 4.14 µM
[7]; MDA-MB-435, 48 h
  IC50: 2.4 µM
[7]; MDA-MB-435, time 48 hrs
  GI50: 1.41 µM
  TGI: 3.24 µM
[8]
  Activity: Active
[9]; 48 h
  IC50: 36.3 µM
[9]; time 48 hrs
  GI50: 12.6 µM
  LC50 (50% lethal concentration): 4 µM
  TGI: 38 µM
[10]; CAKI-1, 48 h
  IC50: 12 µM
[10]; CAKI-1, time 48 hrs
  GI50: 3.31 µM
  TGI: 20.9 µM
[10]; CAKI-1, time 48 hrs, read-out: LC50 (the source's name)
  CC50: 4.07 µM
[11]
  GI50: 3.09 µM
[12]; 48 h
  IC50: 100 µM
[12]; time 48 hrs
  GI50: 2.24 µM
  TGI: 10.5 µM
[12]; time 48 hrs, read-out: LC50 (the source's name)
  CC50: 4 µM
[13]; IGROV-1, 48 h
  IC50: 20.9 µM
[13]; IGROV-1, time 48 hrs
  GI50: 9.55 µM
  LC50 (concentration killing 50% of cells): 4.08 µM
  TGI: 28.8 µM
[14]; 48 h
  IC50: 20 µM
[14]; time 48 hrs
  GI50: 5.75 µM
  TGI: 33.9 µM
